# In patent US20230057979A1, “MEDICINAL COMPOSITIONS FOR CARBON DIOXIDE BASED METERED DOSE INHALERS” (KINDEVA DRUG DELIVERY L.P., priority 2020, published 2023):
# Key:
# [1] = Beclomethasone Dipropionate (BDP) Aerodynamic Particle Size Distribution (APSD) by NGI; assay type: physicochemical; conditions: Example 6 formulation, NGI 30 L/min, five actuations, average of three canisters
# Description: APSD was determined using a Next Generation Impactor (NGI Model 170, Copley Scientific Limited UK) at a flow rate of 30±0.5 L/min drawn using a high-capacity pump (HCP5, Copley Scientific Limited, UK) the flow rate determined using a digital flow meter (Model 4043, TSI Instruments). The filter stage was fitted with a Whatman grade 934-AH glass microfiber filter. Units were tested at the start of life using a 3M Mark 6 actuator (3M, Loughborough, UK) with an exit orifice diameter of 0.25 mm and a jet length of 0.8 mm. Prior to testing, the inhaler was actuated five times to ensure the valve was primed after which the valve stem was cleaned and dried. The inhaler was then attached to the NGI with the use of an appropriate coupler and actuated five times into the NGI. The BDP was recovered from each component using methanol (HPLC grade, Thermo Fisher Scientific, Inc., Waltham, Mass.) using a volume of 10 mL for the stem/can, 30 mL for the throat/coupler, 5 mL for cups 1 to 4 and 20 mL for all other components. Recovery was performed using a rocker station (Gentle Rocker 4515, Copley Scientific Limited UK). Samples were assayed by reversed phase isocratic liquid chromatography using UV detection (Acquity H-Class UPLC, Waters Limited) with the parameter settings presented in Table 1. [table]
# [2] = stated in description, cited from earlier work
# [3] = Salbutamol Sulphate Aerodynamic Particle Size Distribution (APSD) by NGI; assay type: physicochemical; conditions: Example 7 formulation, NGI 30 L/min, six actuations, average of three canisters
# Description: APSD was determined using a Next Generation Impactor as described in the BDP APSD test method. Prior to testing, the inhaler was actuated five times to ensure the valve was primed after which the valve stem was cleaned and dried. The inhaler was then attached to the NGI with the use of an appropriate coupler and actuated six times into the NGI. The Salbutamol sulphate was recovered from each component using a solution of acetonitrile/0.1% phosphoric acid in water (9:1 v/v) using a volume of 20 mL for the throat/coupler and 10 mL for all other components. Recovery was performed using a rocker station (Gentle Rocker, Copley Scientific Limited UK). Samples were assayed by reversed phase gradient liquid chromatography using UV detection (HP1100, Agilent Technologies UK Limited), with the parameter settings in Table 2 and Table 3. [table] [table]
compound,measurement,setting,value
"CCC(=O)OCC(=O)[C@@]1(OC(=O)CC)[C@@H](C)C[C@H]2[C@@H]3CCC4=CC(=O)C=C[C@]4(C)[C@@]3(Cl)[C@@H](O)C[C@@]21C [BDP, beclomethasone dipropionate]",BDP deposited: Actuator,[1],10.8 µg
same,BDP deposited: Cup 1,[1],0.3 µg
same,BDP deposited: Cup 2,[1],0.1 µg
same,BDP deposited: Cup 3,[1],0.1 µg
same,BDP deposited: Cup 4,[1],0.8 µg
same,BDP deposited: Cup 5,[1],4.3 µg
same,BDP deposited: Cup 6,[1],7.4 µg
same,BDP deposited: Cup 7,[1],4.7 µg
same,BDP deposited: Filter,[1],1.6 µg
same,BDP deposited: MOC,[1],5.9 µg
same,BDP deposited: Stem,[1],3.6 µg
same,BDP deposited: Throat/Coupler,[1],59.0 µg
O=C=O [carbon dioxide],vapor pressure at about 20° C.,"[2]; pure liquid propellant, about 20 °C",about 57 bar
same,vapor pressure at about 40° C.,"[2]; pure liquid propellant, about 40 °C",about 80 bar
same,liquid to supercritical phase transition temperature or critical point temperature,[2]; pure propellant,about 31 °C
salbutamol sulphate [SS],SS deposited: Actuator,[3],7.9 µg
same,SS deposited: Cup 1,[3],0.20 µg
same,SS deposited: Cup 2,[3],0.07 µg
same,SS deposited: Cup 3,[3],0.45 µg
same,SS deposited: Cup 4,[3],2.5 µg
same,SS deposited: Cup 5,[3],3.7 µg
same,SS deposited: Cup 6,[3],2.1 µg
same,SS deposited: Cup 7,[3],0.60 µg
same,SS deposited: Filter,[3],0.05 µg
same,SS deposited: MOC,[3],0.29 µg
same,SS deposited: Stem,[3],1.4 µg
same,SS deposited: Throat/Coupler,[3],54.2 µg
